In paper PMC5654414, “In vitro and in vivo comparative and competitive activity-based protein profiling of GH29 α-L-fucosidases” (Chemical Science, 2015):

Columns and labels:
[1] = molecular target: T1, FUCA1 (recombinant human GH29 α-L-fucosidase per table title) (Homo sapiens, UniProt P04066); test: In situ inhibition of FUCA1 in living fibroblasts; type: cell-based
T1 construct: endogenous in cells; host or cells: fibroblasts
T1 sequence (P04066 32-466): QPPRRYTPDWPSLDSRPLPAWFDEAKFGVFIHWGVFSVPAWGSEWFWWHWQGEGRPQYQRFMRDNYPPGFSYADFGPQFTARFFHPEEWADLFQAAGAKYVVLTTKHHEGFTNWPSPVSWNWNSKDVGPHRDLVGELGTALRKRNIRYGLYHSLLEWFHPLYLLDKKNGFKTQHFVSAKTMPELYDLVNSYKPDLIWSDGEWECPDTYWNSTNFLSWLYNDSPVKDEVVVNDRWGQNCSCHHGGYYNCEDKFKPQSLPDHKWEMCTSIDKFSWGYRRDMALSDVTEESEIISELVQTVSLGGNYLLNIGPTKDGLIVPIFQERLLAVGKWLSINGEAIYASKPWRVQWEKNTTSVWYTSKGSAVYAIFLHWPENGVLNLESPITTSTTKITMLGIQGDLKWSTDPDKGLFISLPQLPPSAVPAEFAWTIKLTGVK

FUCA1 [2] = molecular target: T2, FUCA1 (Homo sapiens, UniProt P04066); test: In vitro ABP labeling of FUCA1 overexpressed in COS cells; type: binding
T2 sequence (P04066 32-466): T1 sequence (P04066 32-466)
Excerpt: (§1) Subsequently, we exposed lysates of spleens from a healthy human individual and a patient suffering from Gaucher disease to ABP 1.
(§2) The coding sequences of H. sapiens FUCA1 (NCBI reference sequence XM_005245821.1, using forward primer 5′-[…]-3′ and reverse primer 5′-[…]-3′), and of H. sapiens FUCA2 (NCBI reference sequence NM_032020.4, using forward primer 5′-[…] […]-3′ and reverse primer 5′-[…] […]-3′) were amplified via PCR and cloned into pDNOR-221 and thereafter sub-cloned in pcDNA™-DEST40 vector using the Gateway system (Invitrogen). Correctness of all constructs was verified by sequencing. Confluent COS-7 cells were transfected with pcDNA3.1 empty vector (Mock) or the vector with described insert in conjunction with FuGENE (Roche).
(§3) All pre-incubations and ABP labeling-reactions occurred for 30 min at 37 °C. Total lysates (50 μg), medium (500 μg) or purified protein preparations (5 μg) were labeled with 1 μM JJB256 1 or JJB244 2, dissolved in 150 mM McIlvaine buffer, pH 4.5, incubating for 30 min at 37 °C. […] Wet slab-gels were scanned on fluorescence using a Typhoon Variable Mode Imager (Amersham Biosciences) using λEX 488 nm and λEM 520 nm (band pass filter 40 nm) for green fluorescent JJB256 1 and λEX 532 nm and λEM 610 nM (band pass filter 30 nm) for red fluorescent JJB244 2 and JJB75.

FUCA2 = molecular target: T3, FUCA2 (Homo sapiens, UniProt Q9BTY2); test: In vitro ABP labeling of FUCA2 overexpressed in COS cells; type: binding
T3 construct: expressed in transfected cells; host or cells: COS-7
T3 sequence (Q9BTY2 29-467): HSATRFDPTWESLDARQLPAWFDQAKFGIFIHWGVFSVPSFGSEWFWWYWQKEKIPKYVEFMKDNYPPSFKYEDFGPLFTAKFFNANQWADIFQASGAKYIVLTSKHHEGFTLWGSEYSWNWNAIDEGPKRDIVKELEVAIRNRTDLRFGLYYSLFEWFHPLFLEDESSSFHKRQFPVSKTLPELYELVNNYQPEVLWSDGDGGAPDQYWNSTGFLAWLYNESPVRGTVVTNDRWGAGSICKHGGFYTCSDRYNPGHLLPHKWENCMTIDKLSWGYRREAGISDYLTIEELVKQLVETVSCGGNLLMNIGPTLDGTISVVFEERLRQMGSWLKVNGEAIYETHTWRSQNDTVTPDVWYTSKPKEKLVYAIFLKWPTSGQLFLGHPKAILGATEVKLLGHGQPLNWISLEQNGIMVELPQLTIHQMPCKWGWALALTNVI
Excerpt: as §1, §2, §3

FUCA1 [3] = molecular target: T2, FUCA1; test: ABP pulldown from Gaucher spleen lysate and LC-MS/MS identification; type: binding; set-up: lysates of spleens from a healthy human individual and a patient suffering from Gaucher disease; from tissue; host or cells: human spleen (normal subject and type 1 Gaucher patient); conditions: 10 μM pre-incubation followed by 10 μM ABP 3
Procedure: To further determine the specificity of the developed ABPs, we have analyzed the ABP-labeled proteins in a complex tissue homogenate. For this purpose, we incubated Gaucher spleen lysate with biotinylated ABP 3 or with DMSO only (control) or competitive ABP 3-labeling by first incubating with fluorescent ABP 1. Glycosylated proteins were then enriched via ConA, followed by affinity purification with streptavidin coated paramagnetic beads. The identity of biotinylated and ABP 3-labeled proteins was determined by on-bead digestion with trypsin, peptide analysis by LC-MS/MS and matching against the human UniProt database, using the Mascot search engine as previously reported.[14] […]
Gaucher spleen lysate (1 g) was cut with a sterile scalpel, mixed with 4 mL 25 mM potassium phosphate buffer (pH 6.5, supplemented with 0.1% (v/v) Triton X-100 and protease inhibitor cocktail (Roche)) and sonicated three times for 10 seconds at 100% strength and kept on ice. […] Lysate was then centrifuged for 10 min at 10 000 g, supernatant collected carefully, protein concentration determined and […] total protein was then incubated with either 0.1% (v/v) DMSO, ABP 1 or ABP 3, or firstly with 10 μM ABP 1 followed by 10 μM of ABP 3, each step taking 30 min at 37 °C, in a total volume of 1 mL McIlvaine buffer, pH 4.5. […]

CC1=CC(C)=[N+]2C1=C(CCCCc1cn(CCCCCCCC(=O)N3[C@@H]4[C@@H](C)[C@@H](O)[C@@H](O)[C@H](O)[C@@H]43)nn1)c1c(C)cc(C)n1[B-]2(F)F [compound 1]
IC50 [1]: 28.9 ± 4.4 nM
labeling of enzyme (FUCA1 [2]): labeled
labeling of enzyme (FUCA2): labeled
blocking of ABP 3 binding by pre-incubation (FUCA1 [3]): completely blocked
